Earlier results in patent US20100280975A1, “SYSTEMS FOR CLINICAL TRIALS” (WisTa Laboratories Ltd., priority 2007, published 2010).

Conditions: placebo arm improved 3.2 units from baseline ADAS-cog; cited from earlier work

SMILES: COCCOC(=O)C1=C(C)NC(C)=C(C(=O)OC(C)C)C1c1cccc(C#N)c1Cl (stereo not shown) [MEM-1003]
- efficacy in clinical trial: failed to demonstrate efficacy
